The text below walks through data of PMC10671498, “Antiproliferative and Cytotoxic Properties of Propynoyl Betulin Derivatives against Human Ovarian Cancer Cells: In Vitro Studies” (International Journal of Molecular Sciences, 2023).

Data set [1] has as its system SK-OV-3 cells. Description: SRB cell proliferation assay, SK-OV-3. Type of data set: cell-based, human. Particulars: for IC50: Homo sapiens. The method, then:
This study used ovarian cancer cell lines, which are part of the panel of cell lines used as part of the NCI-60 Human Cell Lines Screen program, characterized by overexpression of the c-erbB2/neu (HER2) receptor [62, 63]. The human ovarian cancer cell lines (SK-OV-3 and OVCAR-3) were purchased from the American Type Culture Collection (ATCC®, Manassas, Virginia, USA). SK-OV-3 cells (ATCC No. HTB-77™) were cultured in McCoy’s 5A medium containing D-glucose (3 g/L), L-glutamine (0.219 g/L), and sodium bicarbonate (2.2 g/L) supplemented with 10% fetal bovine serum, 10 mM HEPES (pH 7.3–7.5), 100 U/mL penicillin, and 100 μg/mL streptomycin (all from Sigma Aldrich).
Betulin 1 and its derivatives were dissolved in dimethyl sulfoxide (DMSO; Sigma Aldrich) as a 15 mM stock solution. Working solutions were prepared through the dilution of stock solutions with culture medium. The final DMSO concentration in culture media was adjusted to 0.2%. The effect of tested compounds on the proliferation of SK-OV-3 and OVCAR-3 cells was measured using the In Vitro Toxicology Assay Kit, Sulforhodamine B based (Sigma Aldrich). Cells were seeded in 96-well plates (Greiner Bio-One, Kremsmünster, Austria) at an initial density of 3 × 10^3 cells per well in 200 µL of culture medium. After 24 h of incubation, betulin 1 and its derivatives at a concentration range of 0.1 μM to 30 μM were added to the wells. Control cultures were treated with vehicle alone (0.2% DMSO). The incubation periods for cells with test compounds were 1 day, 3 days, and 5 days. After appropriate incubation periods, culture media were removed, and cells were fixed in 10% trichloroacetic acid solution for 60 min at 4 °C. After fixation, the TCA solution was removed, and the plates were washed three times with deionized water (300 μL/well) and dried. At the next step, cells were stained with 0.4% sulforhodamine B for 30 min. The excess dye was removed by washing three times with 1% (vol/vol) acetic acid. The protein-bound dye was dissolved in 200 μL 10 mM Tris base solution. Absorbance was measured at 570 nm and 690 nm (reference wavelength) using the MRX Revelation plate reader (Dynex Technologies, Chantilly, VA, USA).
GraphPad Prism 10.0.2 (GraphPad Software Inc., San Diego, CA, USA) software was used for calculations and the statistical analysis of the IC50 values (Table 1). IC50 was determined by using the “nonlinear regression” mode, and the “log(inhibitor) vs. normalised response—Variable slope” equation was chosen in GraphPad Prism software for calculations. The obtained data were normalized to run from 100% down to 0%, and logarithms of concentration were used. Graphs (Figure 2, Figure 3, Figure 4, Figure 5 and Figure 8, and Supplementary Figure S1) were also prepared using this software. In the case of the lack of normal distribution or homogeneity of variances, the remaining results were analyzed using a non-parametric Kruskal–Wallis test with multiple comparisons. Post hoc analysis was performed with the non-parametric equivalent of Tukey’s test. A p value of <0.05 was considered statistically significant. Otherwise, a one-way ANOVA followed by a Tukey’s post hoc test was applied. t-tests was used to perform pairwise comparisons between group means. Analysis was performed using Statistica 13.1 software (StatSoft, Tulsa, OK, USA).

A further data set concerns T47D cell line. Details: method as in PMID 33572631. Particulars: cited from earlier work.
Data set [2] relates to SK-OV-3 cells. Description: Plasma membrane permeability (DNA-histone complexes in culture medium). Type of data set: cell-based, human. Particulars: SK-OV-3, 24 h, with 5 µM cyclosporin A added 30 min before. On the procedure: Fragmentation of genomic DNA was determined by means of the Cell Death Detection ELISAPLUS kit (Roche, Basel, Switzerland). This method rests on the immunoenzymatic detection of DNA–histone complexes in the cytoplasmic cell fraction or cell culture supernatants. Cells were plated and cultured in 96-well plates (Greiner Bio-One) at the initial density of 5 × 10^3 cells per well in 100 µL of culture medium. Cells were allowed to attach and grow for 1 day prior to the addition of test reagents. Then, the media were replaced with the working solutions (3 µM, 10 µM, 30 µM), and cells were exposed to compounds 2–6 for 24 h. In some cases, 5 µM cyclosporin A (CsA, an inhibitor of the mitochondrial permeability transition) was added to the cells 30 min before treatment with the betulin derivative. Subsequently, cells were incubated concomitantly with both compounds. […] In one experiment, the presence of mono- and oligonucleosomes was determined in 20 µL samples of centrifuged culture supernatants (media) to detect the permeability of plasma membrane (considered as an indicator of cell necrosis). […] Absorbance was measured at 405 nm and 490 nm (reference wavelength), and the enrichment factor of the cytoplasmic (or supernatant) fraction in mono- and oligonucleosomes was calculated according to the formula: EF = absorbance of sample cells/absorbance of control cells.

The subject of data set [3] is SK-OV-3 cells. In words: TMRM analysis of mitochondrial membrane potential. Type of data set: cell-based, human. Particulars: SK-OV-3, 3 h, 30 µM. The method, then: Tetramethylrhodamine methyl ester (Sigma Aldrich) was used for the assessment of changes in the transmembrane potential of mitochondria. TMRM is a fluorescent cationic dye accumulating in mitochondria in a potential-dependent manner. Cell cultures were prepared as described above for acridine orange staining. Cells were exposed to test solutions for 3 h, and then TMRM was added (final concentration 100 nM) followed by incubation for 30 min in the CO2 incubator. Prior to observation, the plates were centrifuged (250× g, 5 min), and the medium was changed to PBS. The cells were analyzed under the Nikon Eclipse TS-100F microscope and photographed.

Molecules are shown by their SMILES. Where two headings read alike, the source gives them in different places.

Usually IC50 stands for the concentration that gives 50% inhibition. For `C=C(C)[C@@H]1CC[C@]2(CO)CC[C@]3(C)[C@H](CC[C@@H]4[C@@]5(C)CC[C@H](O)C(C)(C)[C@@H]5CC[C@]43C)[C@@H]12` [Compound 1, lup-20(29)-ene-3β,28-diol, reference compound], the IC50 in the data set with SK-OV-3 cells [1] (72 h, SK-OV-3, 3 days treatment, SRB assay, read-out: IC50) stood at 8.21 µM; in the data set with SK-OV-3 cells [1] (120 h, SK-OV-3, 5 days treatment, SRB assay, read-out: IC50), 4.59 µM.

As for `C#CC(=O)OC[C@]12CC[C@@H](/C(C)=C/P(=O)(OCC)OCC)C1C1CCC3[C@@]4(C)CC[C@H](O)C(C)(C)C4CC[C@@]3(C)[C@]1(C)CC2` (some centres unmarked) [Compound 6, E-29-diethoxyphosphoryl-28-O-propynoylbetulin], the IC50 was 0.7 µM with T47D cell line; 0.29 µM in the data set on SK-OV-3 cells [1] (SK-OV-3, 72 h); 0.26 µM in the data set with SK-OV-3 cells [1] (SK-OV-3, 120 h). Moreover, the “concentration at which antiproliferative activity (decrease in the number of cells) was evident” value in the data set with SK-OV-3 cells [1] (SK-OV-3, SRB assay, 0.1–30 µM) is on record as 1 µM. The “effect of CsA on compound-induced cell death, plasma membrane permeability” value in the data set on SK-OV-3 cells [2] is on record as “almost completely prevented”. The “mitochondrial membrane potential (TMRM fluorescence)” value with SK-OV-3 cells [3] is on record as “reduced the mitochondrial membrane potential”.
